# Results reported in patent publication US4238473A, “Artificial oligosaccharide antigenic determinants” (priority 1975, dated 1980).
# What was measured:
# [1] = test system: antisera raised to 13; experiment: Hapten inhibition of precipitation between 13 and antisera raised to 13; format: binding, rabbit
# Experimental: (§1) This antigen was prepared from the hydrazide derivative of compound 2 using the acyl azide coupling method described in example XII. […] Proof of the hapten specific nature of the response comes from hapten specific inhibition of precipitation between 13 and antisera raised to 13.
# [2] = test system: antibodies raised to this conjugate (antigen 12); experiment: Hapten inhibition of precipitation of anti-12 sera with (β-D-gal-O(CH2)8 CONH)23 -HSA; format: binding, rabbit; conditions: (β-D-gal-O(CH2)8 CONH)23 -HSA as the precipitating antigen; for IC50: read-out: concentration giving 50% inhibition of precipitation
# [3] = test system: Rabbit antisera raised to Le^a -BSA antigens; experiment: Immunodiffusion of rabbit antisera raised to Le^a -BSA antigens; format: binding
# [4] = test system: antibodies raised to this conjugate (antigen 12); format: binding, rabbit; conditions: 50 μl of crude sera raised to antigen 12
# Excerpt: (§2) For rabbits the immunization protocol was that described by Martineau^2 and for goats that of Marcus and Grollman^3. The course of the immunization was followed by quantitative precipitin tests on samples of blood withdrawn at various times. The procedures used were all standard to the field of immunology^4.
# [5] = test system: rabbits; experiment: Immunization of rabbits with 13, specificity of sera; format: in vivo, rabbit; conditions: rabbits immunized with 13
# Experimental: as §1
# [6] = test system: antiserum raised against [Le^a -O(CH2)8 CONH]30 -BSA; experiment: Maximum precipitation of anti-[Le^a -O(CH2)8 CONH]30 -BSA antiserum against test antigen; format: binding, rabbit; conditions: as test antigen against antiserum raised to [Le^a -O(CH2)8 CONH]30 -BSA
# Experimental: The above antiserum had been raised against the artificial Lewis-a antigen [Le^a -O(CH2)8 CONH]30 -BSA. The maximum precipitation against [Le^a -O(CH2)8 CONH]28 -HSA as test antigen was 277 μg of antibody per 50 μl of antiserum.
# [7] = test system: human blood group Lewis-(a+b-) red cells; experiment: Agglutination of red cells by goat antisera to artificial Le^a antigen; format: cell-based; conditions: goat antisera after appropriate treatment
# Excerpt: (§3) To further explore the extent of cross reactions between antibodies raised to the artificial Le^a antigens and human Lewis-a blood group substance and to obtain larger amounts of antisera, a goat was immunized with [Le^a -O(CH2)8 CONH]30 -BSA.
# [8] = test system: Lewis (a-) red cells; experiment: as above; format: cell-based, human; conditions: goat antisera after appropriate treatment
# Excerpt: as §3
# [9] = test system: human Lewis-a blood group substance; experiment: Goat immunization, cross-reaction of antisera with natural substance; format: in vivo; conditions: goat immunized with the antigen
# Excerpt: as §3
# [10] = test system: San Juan rabbits; conditions: six San Juan rabbits, antigen in Freund's complete adjuvant
# Excerpt: as §2
# [11] = at the concentration that methyl β-D-glcNAc was effective
molecule,measurement,setting,value
CO[C@@H]1O[C@H](CO)[C@@H](O)[C@H](O)[C@H]1NC(C)=O [methyl β-D-glcNAc],inhibition of precipitation,[1]; precipitation between 13 and antisera raised to 13,60-80%
CO[C@@H]1O[C@H](CO)[C@H](O)[C@H](O)[C@H]1NC(C)=O [methyl β-D-galNAc],inhibition of precipitation,[1]; [11],virtually no inhibition
OC[C@H]1OC(O)[C@H](O)[C@@H](O)[C@H]1O (stereo partly drawn) [galactose],IC50,[2],6.6 mM
dextran,line of precipitation on immunodiffusion,[3],No line of precipitation
(α-D-gal-O(CH2)8 CONH)17 -BSA,maximum amount of antibody precipitated,[4],87 µg
(β-D-glcNAc-O(CH2)8 CONH)25 -BSA [antigen 13],specificity of sera from immunized rabbits,[5],high specificity for antigens containing the β-D-glcNAc hapten
CO[C@H]1O[C@H](CO)[C@H](O)[C@H](O)[C@H]1O [methyl α-D-galactopyranoside],IC50,[2],33 mM
polylysine,line of precipitation on immunodiffusion,[3],No line of precipitation
[Le^a -O(CH2)8 CONH]28 -HSA,maximum precipitation,[6],277 μg of antibody per 50 μl of antiserum
CO[C@@H]1O[C@H](CO)[C@@H](O)[C@H](O)[C@H]1O [methyl β-D-glucopyranoside],inhibition of precipitation,[2],approximately no inhibition
same,inhibition of precipitation,[1]; [11],virtually no inhibition
[Le^a -O(CH2)8 CONH]30 -BSA,agglutination by the antisera,[7],effectively agglutinated
same,agglutination by the antisera,[8],did not agglutinate
same,cross-reaction of antisera with human Lewis-a blood group substance,[9],showed the expected cross-reaction
CO[C@@H]1O[C@H](CO)[C@H](O)[C@H](O)[C@H]1O [methyl β-D-galactopyranoside],IC50,[2],0.83 mM
(β-D-gal-O(CH2)8 CONH)24 -BSA [antigen 12],maximum amount of antibody precipitated,[4],396 µg
same,Antibody levels upon completion of the schedule (average),[10],277 μg per 50 μl sera
OC[C@H]1O[C@@H](O[C@H]2[C@H](O)[C@@H](O)C(O)O[C@@H]2CO)[C@H](O)[C@@H](O)[C@H]1O (stereo partly drawn) [lactose],IC50,[2],70 mM
